Data published in patent US20230139883A1, “Peptides for Inducing Differentiation” (Shimadzu Corporation, priority 2020, published 2023).

Tests used:
[1] = system: FGFR3; experiment: Phage display selection against FGFR3 with Miseq analysis of the bound phages; assay type: binding; details: for 1 nM Num. of reads: phage library after panning Round 4, bound to 1 nM FGFR3; for 10 nM Num. of reads: phage library after panning Round 4, bound to 10 nM FGFR3; for 100 nM Num. of reads: phage library after panning Round 4, bound to 100 nM FGFR3; for 1 nM Ranking / 10 nM Ranking / 100 nM Ranking: rank by number of reads; for 1 nM Ranking: 1 nM FGFR3; for 10 nM Ranking: 10 nM FGFR3; for 100 nM Ranking: 100 nM FGFR3
Description: The collected phage library was mixed with 100 nM of FGFR3 solution and allowed to react overnight at 4° C. (Table 9: Panning Round 1). After the reaction, the binding phages were captured by magnetic beads modified with protein A, and washed three times with PBS-T, followed by eluting the bound phages with Gly-HCl (pH 2.0). After neutralizing with 2M Tris, the pages were infected to E. coli (TG1 strain). After 4 hours of incubation, helper phages were added, and the E. coli (TG1 strain) were allowed to produce phages overnight. Next, phage solution was prepared from the culture supernatant. The prepared phage solution was mixed with FGFR3 solution and allowed to react overnight at 4° C. (Table 9: Panning Round 2). After the reaction, the bound phages were eluted. Phage solution prepared in the same way was mixed with FGFR3 solution and allowed to react at 4° C. for 1 hour (Table 9: Panning Round 3). After the reaction, the bound phages were eluted. This operation was further repeated, and after Panning Round 4, the bound phages were eluted. Note that as the rounds proceeded, the number of washes with PBS-T was increased. (Table 9). The titer of the Output phage in each round was also determined. The titer of phage was determined from the number of colonies obtained by incubating the E. coli TG1 strain contacted with the phage at 37° C. overnight. The phage library eluted after panning of Example 7 (Table 9: Input phage (Round 4)) was subjected to Human IgG Fc-immobilized plate, and negative selection was performed by collecting unbound phages. The phage library was then acted to FGFR3 prepared to concentrations of 100 nM, 10 nM, and 1 nM. Bound phages were then collected. The genomic DNA of the collected phages was extracted, samples were prepared according to Illumina's protocol for Miseq, and a comprehensive analysis of the phage genomic DNA was performed. Among the sequences obtained, 20 sequences high incidence rates were selected (Table 11). The yeast cells acquired in the screening of Example 8 were seeded onto SDCAA agar plates and cultured. Fourteen single colonies formed on the agar plates were randomly selected, and for each clone, the peptide DNA sequence incorporated into the yeast expression plasmid was analyzed using the Sanger method (Table 12).

[2] = system: FGFR2; experiment: Yeast display screening (MACS/FACS) against FGFR2 with Sanger sequencing of single colonies; assay type: binding; details: frequency of the clone among randomly selected single colonies after FGFR2 screening
Description: Cells were then charged to an LS column attached to a magnetic stand. In order to remove yeast cells not bound to FGFR2, 7 mL of PBSM was flowed through the LS column twice. The LS column was then removed from the magnetic stand and FGFR2-binding yeast clones were collected by flowing SDCAA medium and cultured. The above operations were deemed as one round, and a total of three rounds were performed (Table 10). Next, yeast clones with high binding activity were screened from the yeast collected by MACS, using FACS (Fluorescence-activated cell sorting). FGFR2-Fc and mouse anti-FLAG antibodies were bound to the yeast library, followed by binding of anti-mouse IgG-Alexa488 and anti-human Fc antibody-Alexa647. […] The binding of the peptide to FGFR2 can also be detected by the fluorescence intensity of Alexa647. With that, yeast clones with high fluorescence intensities of Alexa488 and Alexa647 were collected by FACS cell sorter (BD FACS AriaIII).
The phage library eluted after panning of Example 7 (Table 9: Input phage (Round 4)) was subjected to Human IgG Fc-immobilized plate, and negative selection was performed by collecting unbound phages. The phage library was then acted to FGFR3 prepared to concentrations of 100 nM, 10 nM, and 1 nM. Bound phages were then collected. The genomic DNA of the collected phages was extracted, samples were prepared according to Illumina's protocol for Miseq, and a comprehensive analysis of the phage genomic DNA was performed. Among the sequences obtained, 20 sequences high incidence rates were selected (Table 11). The yeast cells acquired in the screening of Example 8 were seeded onto SDCAA agar plates and cultured. Fourteen single colonies formed on the agar plates were randomly selected, and for each clone, the peptide DNA sequence incorporated into the yeast expression plasmid was analyzed using the Sanger method (Table 12).

[3] = system: iPS-hFB; experiment: Differentiation induction of iPS cells into cardiomyocytes: observation of beating cell clusters; details: Example 3: 0.05 μM peptide + Activin A on Day 1, no bFGF
[4] = system: iPS-hFB; experiment: Differentiation induction of iPS cells into cardiomyocytes: RT-qPCR of cardiomyocyte markers cTNT and Actinin; details: Day 23
[5] = Example 3, protocol 5, 0.05 μM, compared to protocols 1, 3, 4 or 6

Row | Molecule | 1 nM Num. of reads [1] | 10 nM Num. of reads [1] | 100 nM Num. of reads [1] | 1 nM Ranking [1] | 10 nM Ranking [1] | 100 nM Ranking [1] | Frequency [2] | also measured
1 | CAAELAALEAELAALEGEVNMTRARAGKLLVLKVKLHGLKQAC [F3-100n504] | 1062 | 741 | 1006 | 18 | 21 | 21 | – | –
2 | CAAELAALEAELAALEGGAFLTVGRAGKLMMLKQKLVRLKCAC [F3-100n117] | 1355 | 948 | 1188 | 9 | 9 | 12 | – | –
3 | CAAELAALEAELAALEGGAPVTIMGVGKLMVLKEKLRNLKDAC [F3-100n16] | 1095 | 647 | 775 | 16 | 26 | 33 | – | –
4 | CAAELAALEAELAALEGGGGGGG----FLRNLHIKLYLLQFAC [FGFR_Y07] | – | – | – | – | – | – | 1 | –
5 | CAAELAALEAELAALEGGGGGGG----KLMDLHYQLYNLFIAC [FGFR_Y01] | – | – | – | – | – | – | 1 | –
6 | CAAELAALEAELAALEGGRDRTLELSGKLLVLKSKLHWLKHAC [F3-100n251] | 3203 | 2387 | 3153 | 2 | 1 | 2 | – | –
7 | CAAELAALEAELAALEGGRTPVVTTMGKLMGLKLKLQQLKRAC [F3-100n322] | 1234 | 813 | 1061 | 12 | 16 | 18 | – | –
8 | CAAELAALEAELAALEGKDFRTIELVGKLVLLKYKLNNLKEAC [F3-100n548] | 1248 | 873 | 1088 | 11 | 13 | 17 | – | –
9 | CAAELAALEAELAALEGKEHPTLRTSGKLLHLKLKLHELKRAC [F3-100n131] | 2801 | 2079 | 2648 | 3 | 4 | 3 | – | –
10 | CAAELAALEAELAALEGLDYHTVLSTGKLMVLKRKLNILKLAC [F3-100n250] | 966 | 856 | 1096 | 20 | 14 | 16 | – | –
11 | CAAELAALEAELAALEGLHTLTLMQTGKLLVLKMKLRELKWAC [F3-100n192] | 1100 | 707 | 857 | 15 | 23 | 28 | – | –
12 | CAAELAALEAELAALEGPPRPHLPPLGKLFLLKFKLYLLKGAC [FGFR_Y09] | – | – | – | – | – | – | 1 | –
13 | CAAELAALEAELAALEGPSRVGSRRRGKLNLLKYKLHGLKLAC [FGFR_Y13] | – | – | – | – | – | – | 1 | –
14 | CAAELAALEAELAALEGQKHFTLGGLGKLIVLKKQLRILKCAC [F3-100n174] | 1668 | 1223 | 1811 | 8 | 7 | 6 | – | –
15 | CAAELAALEAELAALEGRPVRTVLTNGKLMVLKSKLQELKHAC [F3-100n182] | 1723 | 1143 | 1423 | 7 | 8 | 8 | – | –
16 | CAAELAALEAELAALEGRTFTIGEVKGKLQGLIMKLHHLKDAC [F3-100n116] | 1895 | 2291 | 3236 | 6 | 2 | 1 | – | –

Row | Molecule | 1 nM Num. of reads [1] | 10 nM Num. of reads [1] | 100 nM Num. of reads [1] | 1 nM Ranking [1] | 10 nM Ranking [1] | 100 nM Ranking [1] | Frequency [2] | also measured
17 | CAAELAALEAELAALEGSTARTLMQVGKLEMLKYKLLELKCAC [F3-100n3] | 1084 | 613 | 850 | 17 | 29 | 29 | – | –
18 | CAAELAALEAELAALEGVKELTLGTVGKLMSLKYKLWSLKQAC [F3-100n410] | 2547 | 1717 | 2279 | 4 | 5 | 5 | – | –
19 | CAAELAALEAELAALEGVRPETMSQVGKLLVLKHRLGQLKRAC [F3-100n9] | 3326 | 2152 | 2566 | 1 | 3 | 4 | – | –
20 | CAAELAALEAELAALEVGRVKTLGRYGKLMVLKHQLRNLKCAC [F3-100n161] | 1045 | 903 | 1261 | 19 | 10 | 9 | – | –
21 | CAHHLASLEYDLAILEGGDGGGG----HLARLKRQLAELKNAC [FGFR_Y16] | – | – | – | – | – | – | 1 | –
22 | CAKELLALKRELKALQGGGGGGG----KLRALQLKLYALLLAC [FGFR_Y11] | – | – | – | – | – | – | 2 | –
23 | CALELLALRGELEALRGGGGGGG----KLGALHLKLFALQWAC [FGFR_Y08] | – | – | – | – | – | – | 1 | –
24 | CAQELRALLRELQALGGGGGGGG----KLGALVFKLYALMLAC [FGFR_Y15] | – | – | – | – | – | – | 1 | –
25 | CAQELVALHMELRALGGGGGGGG----KLQALYLKLFALDHAC [FGFR_Y04] | – | – | – | – | – | – | 1 | –
26 | CARELQALGKELKALKGGGGGGG----KLRALQLKLYALQVAC [FGFR_Y10] | – | – | – | – | – | – | 1 | –
27 | CARELQALLKELQALGGGGGGGG----KLLALFVKLYALRLAC [FGFR_Y02] | – | – | – | – | – | – | 1 | –
28 | CARELRALRRELRALQGGGGGGG----KLHALHRKLFALMVAC [FGFR_Y06] | – | – | – | – | – | – | 1 | –
29 | CAVELYALHRELYALYGGGGGGS----KLYALYLKLLALQLAC [FGFR_Y05] | – | – | – | – | – | – | 1 | –
30 | CPRELEALRRELGALMGGGGGGG----KLNALMLKLYALHNAC [FGFR_Y14] | – | – | – | – | – | – | 1 | –
31 | 100nX-Dimer: a dimerized peptide of 100nX (SEQ ID NO: 9) (dimerized) chain 1: CAAELAALEAELAALEGVPGDNNGTRGKLYHLKNKLHRLKNAC chain 2: CAAELAALEAELAALEGVPGDNNGTRGKLYHLKNKLHRLKNAC | – | – | – | – | – | – | – | day on which beating cell clusters were observed [3]: 11 days; ACTN2 expression level [4, 5]: significantly increased; cTNT expression level [4, 5]: significantly increased; gene expression levels (cTNT, ACTN2) ([4]; Example 4: peptide in combination with bFGF, compared to conventional protocol 1): significantly increased
